Test results published in patent US12180192B2, “Modulators of THR-β and methods of use thereof” (ALIGOS THERAPEUTICS, INC., priority 2019, dated 2024).
Read-outs that look alike come from different tables or passages of the source.

Tests used:
Assay type in all cases: cell-based
[1] = molecular target: T1, THR beta (Homo sapiens, UniProt P10828); assay: HEK293T THR beta/RXR luciferase reporter assay (Assay 2); conditions: for Emax: HEK-293T, read-out: Activity category Assay 2 THRβ (Emax); for EC50: THR-beta, HEK293T reporter assay, read-out: Activity category Assay 2 (EC50, THR-beta agonist)
T1 construct: expressed in transfected cells; host or cells: HEK293T (ATCC CRL-3216)
T1 sequence (P10828 1-461): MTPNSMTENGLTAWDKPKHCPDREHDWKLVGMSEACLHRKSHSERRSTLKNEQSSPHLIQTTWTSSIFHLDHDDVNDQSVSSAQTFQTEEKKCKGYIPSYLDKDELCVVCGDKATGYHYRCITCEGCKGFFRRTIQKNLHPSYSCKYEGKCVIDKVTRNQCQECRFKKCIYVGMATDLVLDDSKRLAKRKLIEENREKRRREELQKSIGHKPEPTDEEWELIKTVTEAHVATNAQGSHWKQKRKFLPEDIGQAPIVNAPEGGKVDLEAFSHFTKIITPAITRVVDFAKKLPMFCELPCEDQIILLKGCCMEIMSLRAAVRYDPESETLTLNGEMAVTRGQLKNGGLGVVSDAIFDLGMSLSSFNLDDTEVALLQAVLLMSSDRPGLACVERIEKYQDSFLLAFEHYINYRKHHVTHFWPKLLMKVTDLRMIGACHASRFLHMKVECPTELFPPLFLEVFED
T1 sequence (P19793 1-462 partner): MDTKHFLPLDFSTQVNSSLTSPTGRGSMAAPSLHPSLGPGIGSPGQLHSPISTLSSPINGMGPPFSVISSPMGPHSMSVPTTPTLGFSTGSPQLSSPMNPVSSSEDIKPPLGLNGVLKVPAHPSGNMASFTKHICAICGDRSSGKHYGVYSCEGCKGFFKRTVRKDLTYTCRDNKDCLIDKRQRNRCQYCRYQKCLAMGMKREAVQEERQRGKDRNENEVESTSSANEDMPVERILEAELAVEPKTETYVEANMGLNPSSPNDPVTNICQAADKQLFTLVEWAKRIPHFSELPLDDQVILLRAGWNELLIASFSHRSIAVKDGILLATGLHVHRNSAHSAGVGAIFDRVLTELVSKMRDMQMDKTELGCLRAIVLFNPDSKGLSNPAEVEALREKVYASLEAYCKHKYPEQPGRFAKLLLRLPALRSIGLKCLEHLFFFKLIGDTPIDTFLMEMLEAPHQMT
Procedure, shortened: (§1)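 Compounds tested as ten-point five-fold dilution series for 18-24 h on transiently transfected HEK293T cells carrying TRE-driven luciferase plus RXR and either THR alpha or beta expression plasmids. Read-out by One-Glo luminescence, expressed as percent agonism relative to negative and positive controls.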

[2] = system: CPT1A gene expression in Huh-7 cells; assay: Huh-7 differential gene expression, CPT1A RT-qPCR (Assay 3); conditions: Table 6, Huh-7 cells, CPT1A, 24 hr treatment; for EC50: read-out: Activity category Assay 3 EC50; for Emax: read-out: Activity category Assay 3 Emax
Protocol: Huh-7 Differential Gene Expression (Assay 3)
Fetal bovine serum (FBS) was incubated with washed resin (50 mg resin/mL FBS; resin weight is dry weight of resin prior to washing) for 5 hr at room temperature on a rotor. The FBS was separated from the resin via centrifugation and incubated with new, washed resin for 18 h at room temperature on a rotor.
Cell Culture and Drug Treatment
Huh-7 cells were cultured in DMEM (10-013-CM, Corning) supplemented with 10% FBS and 1% Pen-Strep at 37° C. under 5% C02. When 70-80% confluence was reached, the cells were removed by trypsinization. The medium was aspirated from the cell culture dish, the cell monolayer was washed with 1×PBS, and 0.05% trypsin, 0.53 mM EDTA (25-052-CV, Corning) solution was added to the dish. After 3 min incubation, the cells were detached completely by repeatedly pipetting solution onto the monolayer. Equal volume of DMEM supplemented with 10% rFBS and 1% Pen-Strep (TH-depleted DMEM) was added to the dish to inactivate the trypsin. The cell suspension was centrifuged at 350×g at room temperature for 3 min. The supernatant was aspirated out and the cell pellet was resuspended in TH-depleted DMEM. […] After 24 hr incubation, the media was replaced with treatment media. All compounds were serially diluted in DMSO and final concentrations were reached by dilution in TH-depleted DMEM (0.1% DMSO). The cells were incubated in treatment media for 24 hr. Treatments were performed in biological duplicates.
After 24 hr in treatment media, the cells were lysed directly on the culture plates and cDNA was produced using the TaqMan™ Fast Advanced Cells-to-CT™ Kit (A35374, Invitrogen) and following the manufacturer's protocol. RT-qPCR for CPT1A (Hs00912671_m1) and two housekeeping genes, ACTB (Hs01060665_g1) and TFG (Hs02832013_g1), was performed using TaqMan™ Fast Advanced Master Mix. RT-qPCR reactions were run on the qTOWER^3 84 G (Analytik Jena) in technical duplicates.
ΔRn values were obtained from the qPCRsoft384 1.0 software and CPT1A gene expression was quantified via the 2-ΔΔCt method. Dose-response curves were generated using GraphPad Prism 8 using four parameter logistic equation without top constraint to derive EC50 and Emax.

[3] = molecular target: T2, THR alpha (Homo sapiens, UniProt P10827); assay: HEK293T THR alpha/RXR luciferase reporter assay (Assay 2); conditions: Assay 2; for Emax: HEK-293T, read-out: Activity category Assay 2 THRα (Emax); for EC50: Table 4, THR-alpha, read-out: Activity category Assay 2 (EC50, THR-alpha agonist activity)
T2 construct: expressed in transfected cells; host or cells: HEK293T (ATCC CRL-3216)
T2 sequence (P10827 1-410 isoform P10827-2): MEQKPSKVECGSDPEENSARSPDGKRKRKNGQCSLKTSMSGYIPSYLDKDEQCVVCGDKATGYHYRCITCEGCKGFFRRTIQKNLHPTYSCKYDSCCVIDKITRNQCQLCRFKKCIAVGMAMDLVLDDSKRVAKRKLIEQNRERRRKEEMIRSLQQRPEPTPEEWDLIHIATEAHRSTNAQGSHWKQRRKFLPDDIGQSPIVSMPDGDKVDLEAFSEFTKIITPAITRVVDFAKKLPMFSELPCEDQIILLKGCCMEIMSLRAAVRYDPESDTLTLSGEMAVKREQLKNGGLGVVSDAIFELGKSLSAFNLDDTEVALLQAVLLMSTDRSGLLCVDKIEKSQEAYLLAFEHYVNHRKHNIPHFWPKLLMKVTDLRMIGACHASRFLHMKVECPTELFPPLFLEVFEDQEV
T2 sequence (P19793 1-462 partner): T1 sequence (P19793 1-462 partner)
Procedure, shortened: as §1

SMILES | Emax ([1]; Table 5, Assay 2, THRβ) | EC50 [1] | EC50 ([2]; Homo sapiens, Huh-7, 24 h) | Emax ([2]; Homo sapiens, Huh-7, 24 h) | Emax ([3]; Table 5, THRα) | EC50 [3] | Activity category Assay 2 THRβ (Emax) ([1]; Table 5, Assay 2, THRβ) | Activity category Assay 3 Emax [2] | EC50 [2] | Activity category Assay 2 THRα (Emax) ([3]; Table 5, THRα)
CC(C)c1c[nH]c2nnc(Oc3c(Cl)cc(-n4nc(C#N)c(=O)[nH]c4=O)cc3Cl)cc12 [Compound 52, 2-[3,5-dichloro-4-([5-isopropyl-7H-pyrrolo[2,3-c]pyridazin-3-yl]oxy)phenyl]-3,5-dioxo-4H-1,2,4-triazine-6-carbonitrile] | > 75% | > 10000 nM | > 100 nM | > 75% | 50 to 75% | > 10000 nM | – | – | – | –
Nc1nn(-c2cc(Cl)c(Oc3cc(C45CCC(C4)C5)c(=O)[nH]n3)c(Cl)c2)c(=O)[nH]c1=O [Compound 101] | 50 to 75% | 50 to 250 nM | < 100 nM | < 50% | < 50% | 50 to 250 nM | – | – | – | –
Cc1cc(-n2nc(N)c(=O)[nH]c2=O)cc(C)c1Cc1cc2c(C(C)C)c[nH]c2cn1 [Compound 157, 6-amino-2-[4-[(3-isopropyl-1H-pyrrolo[2,3-c]pyridin-5-yl)methyl]-3,5-dimethyl-phenyl]-1,2,4-triazine-3,5-dione] | > 75% | < 50 nM | < 100 nM | > 75% | 50 to 75% | 50 to 250 nM | – | – | – | –
C[C@H]1C[C@H](c2cc(Oc3c(Cl)cc(-n4nc(N)c(=O)[nH]c4=O)cc3Cl)n[nH]c2=O)C1 (single isomer, unassigned) [Compound 86-A, 6-Amino-2-(3,5-dichloro-4-((5-((1r,3r)-3-methylcyclobutyl)-6-oxo-1,6-dihydropyridazin-3-yl)oxy)phenyl)-1,2,4-triazine-3,5(2H,4H)-dione] | > 75% | 50 to 250 nM | < 100 nM | 50 to 75% | 50 to 75% | 250 to 1000 nM | – | – | – | –
Cc1cc(-n2nc(N)c(=O)[nH]c2=O)cc(C)c1Cc1ccc(O)c(-c2ccccc2)n1 [Compound 43, 6-amino-2-[4-[(5-hydroxy-6-phenylpyridin-2-yl)-methyl]-3,5-dimethylphenyl]-4H-1,2,4-triazine-3,5-dione] | > 75% | – | < 100 nM | > 75% | > 75% | < 50 nM | – | – | – | –
CC1(C)CC(c2cc(Oc3c(Cl)cc(-n4nc(N)c(=O)[nH]c4=O)cc3Cl)n[nH]c2=O)C1 [Compound 89, 6-Amino-2-(3,5-dichloro-4-((5-(3,3-dimethylcyclobutyl)-6-oxo-1,6-dihydropyridazin-3-yl)oxy)phenyl)-1,2,4-triazine-3,5(2H,4H)-dione] | 50 to 75% | – | 100 to 1000 nM | > 75% | < 50% | 1000 to 10000 nM | – | – | – | –
Nc1nn(-c2cc(Cl)c(Oc3cc(-c4ccc5ccccc5c4)c(=O)[nH]n3)c(Cl)c2)c(=O)[nH]c1=O [Compound 67, 6-amino-2-(3,5-dichloro-4-[[5-(naphthalen-2-yl)-6-oxo-1H-pyridazin-3-yl]oxy]phenyl)-4H-1,2,4-triazine-3,5-dione] | 50 to 75% | 50 to 250 nM | > 100 nM | > 75% | < 50% | > 10000 nM | – | – | – | –
Nc1nn(-c2cc(Cl)c(Oc3n[nH]c(=O)cc3-c3ccc4c(c3)CCCO4)c(Cl)c2)c(=O)[nH]c1=O [Compound 115] | < 50% | 250 to 1000 nM | > 100 nM | > 75% | < 50% | > 10000 nM | – | – | – | –
Cc1cc(-n2nc(C#N)c(=O)[nH]c2=O)cc(C)c1Cc1ccc2c(c1)C1(CC1)C(=O)N2 [Compound 148, 2-(3,5-dimethyl-4-((2′-oxospiro[cyclopropane-1,3′-indolin]-5′-yl)methyl)phenyl)-3,5-dioxo-2,3,4,5-tetrahydro-1,2,4-triazine-6-carbonitrile] | 50 to 75% | 1000 to 10000 nM | 100 to 1000 nM | > 75% | < 50% | 1000 to 10000 nM | – | – | – | –
Nc1nn(-c2cc(Cl)c(Oc3n[nH]c(=O)cc3-c3ccc4ccccc4c3)c(Cl)c2)c(=O)[nH]c1=O [Compound 67-A, 6-amino-2-(3,5-dichloro-4-((4-(naphthalen-2-yl)-6-oxo-1,6-dihydropyridazin-3-yl)oxy)phenyl)-1,2,4-triazine-3,5(2H,4H)-dione] | < 50% | – | 100 to 1000 nM | < 50% | < 50% | 1000 to 10000 nM | – | – | – | –
Cc1cc(-n2nc(N)c(=O)[nH]c2=O)cc(C)c1Cc1ccc2c(c1)C1(CC1)C(=O)N2 [Compound 151, 6-Amino-2-(3,5-dimethyl-4-((2′-oxospiro[cyclopropane-1,3′-indolin]-5′-yl)methyl)phenyl)-1,2,4-triazine-3,5(2H,4H)-dione] | 50 to 75% | < 50 nM | < 100 nM | > 75% | 50 to 75% | < 50 nM | – | – | – | –
Cc1cc(-n2ncc(=O)[nH]c2=O)cc(C)c1Cc1ccc2[nH]cc(C(C)C)c2n1 [Compound 54, 2-[4-[(3-isopropyl-1H-pyrrolo[3,2-b]pyridine-5-yl)methyl]-3,5-dimethyl-phenyl]-1,2,4-triazine-3,5-dione] | > 75% | < 50 nM | < 100 nM | > 75% | 50 to 75% | < 50 nM | – | – | – | –
CCC(C)c1cc(Oc2c(Cl)cc(-n3nc(N)c(=O)[nH]c3=O)cc2Cl)n[nH]c1=O (stereo not drawn) [Compound 39-B] | – | < 50 nM | – | – | – | < 50 nM | A (Emax≥75%) | A (Emax≥75%) | < 100 nM | A (Emax≥75%)
